The text below walks through data of patent publication US10765664B2, “Treatment of infectious diseases” (CHILDREN'S MEDICAL CENTER CORPORATION, priority 2015, dated 2020).

The conditions of data set [1]: in vivo; cited from earlier work.
The conditions of data set [2]: in vivo; cited from earlier work. This is another data set of the same source.
Data set [3] deals with IFITM3. Description: IFITM3 mRNA in THP-1 cells stimulated with cytokines or TLR agonists, real time PCR. The data set is classed as cell-based, human. Conditions: for IFITM3 mRNA induction: data not shown (Example 3). A general note: In qPCR the cycle at which signal appears reflects the starting amount.
The conditions of data set [4]: tizoxanide after a 500 mg dose of NTZ; cited from earlier work.
Data set [5] relates to Zaire ebolavirus GP-pseudotyped lentivirus. Description: organism not typed. Type of data set: cell-based.
In data set [6] the test system is live Ebola virus. The data set is classed as cell-based.
For data set [7], the system named is H37Rv-mCherry MTb. Type of data set: cell-based, Mycobacterium tuberculosis. To be noted: concentration-dependent; 0, 5, 10, 15, or 20 μM NTZ pretreatment.
Data set [8] deals with HIV-1Bal/ZsGreen1. The data set is classed as cell-based. Conditions: pretreatment with 1 μM NTZ.
In data set [9] the test system is HIV LTR. Type of data set: cell-based. Conditions: for HIV transcriptional activation (LTR-Renilla): NTZ 5 or 10 μM pretreatment.
For data set [10], the system named is HIV LTR. Type of data set: cell-based.
Data set [11] concerns PKR. Briefly: PKR gene transcription in HeLa cells. Type of data set: cell-based, human.
In data set [12] the test system is RIG-I. Briefly: RIG-I gene transcription in HeLa cells. The data set is classed as cell-based, human.
For data set [13], the system named is HIV. Type of data set: cell-based. To be noted: MDM or AM/lymphocyte system; expected.
Data set [14] concerns nonreplicating MTb. Conditions: cited from earlier work.
Data set [15] addresses PKR (Homo sapiens, UniProt P19525). Conditions: hepatoma cells; cited from earlier work.
The subject of data set [16] is MTb. Conditions: by inhibiting the mTOR pathway; cited from earlier work.
The subject of data set [17] is MTb-infected THP-1 cells and human monocytes. Conditions: through inhibition of NQO1; cited from earlier work.
For data set [18], the system named is X4-tropic HIV. To be noted: human PBMC, with glucocorticoids; cited from earlier work.
The subject of data set [19] is influenza. Conditions: in vivo; cited from earlier work.
Data set [20] deals with HCV. Conditions: added to ribavirin plus pegylated IFN; cited from earlier work.
The test system of data set [21] is THP-1 cells. Briefly: Cellular acidification of THP-1 cells, Lysotracker Red flow cytometry. To be noted: 24 hrs. Background: A flow cytometer gives signals particle by particle.

Read-outs that look alike come from different tables or passages of the source.

Sequence of PKR (Homo sapiens, UniProt P19525) (P19525 whole entry): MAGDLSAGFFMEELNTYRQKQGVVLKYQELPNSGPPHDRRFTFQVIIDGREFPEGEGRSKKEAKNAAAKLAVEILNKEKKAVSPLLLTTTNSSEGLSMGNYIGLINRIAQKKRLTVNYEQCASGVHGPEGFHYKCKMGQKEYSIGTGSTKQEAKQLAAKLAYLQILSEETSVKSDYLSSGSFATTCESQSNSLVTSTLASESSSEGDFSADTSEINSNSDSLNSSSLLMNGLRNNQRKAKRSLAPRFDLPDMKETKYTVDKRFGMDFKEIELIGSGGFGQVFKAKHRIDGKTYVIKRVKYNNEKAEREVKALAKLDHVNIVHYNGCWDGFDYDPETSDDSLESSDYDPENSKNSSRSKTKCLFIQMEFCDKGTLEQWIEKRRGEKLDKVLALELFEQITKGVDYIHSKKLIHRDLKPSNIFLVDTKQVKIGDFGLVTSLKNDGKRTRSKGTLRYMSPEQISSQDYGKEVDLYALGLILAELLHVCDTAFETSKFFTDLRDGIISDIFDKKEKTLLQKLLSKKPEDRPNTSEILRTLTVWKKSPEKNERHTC

For the compound `CC(=O)Oc1ccccc1C(=O)Nc1ncc(Cl)s1` [RM-5038], the “absorption in the GI tract compared to NTZ” value in [1] is “better absorbed”. Further, the “tolerability compared to NTZ” value in data set [2] is “better tolerated”.
For IL-1β: recombinant IL-1β, in data set [3] (THP-1 cells, by 48 hrs), the “IFITM3 mRNA vs untreated control cells” value is “significantly elevated”.
As to `O=C(Nc1ncc([N+](=O)[O-])s1)c1ccccc1O` [tizoxanide], the “peak mean plasma concentration” value in [4] is 26 µM.
As for MCP-1: MCP-1 cytokine treatment, in data set [3], the “IFITM3 mRNA induction” value is “not induced”.
Take IL-6: recombinant IL-6: in data set [3] (THP-1 cells, by 24 hours post-stimulation), the IFITM3 transcript levels entry is on record as “significant increase”.
For the compound `CC(=O)Oc1ccccc1C(=O)Nc1ncc([N+](=O)[O-])s1` [NTZ, [2-[(5-nitro-1,3-thiazol-2-yl)carbamoyl]phenyl] ethanoate], in [5], the “infection by Zaire Ebolavirus GP-pseudotyped lentiviral particles” value was “inhibits”. The inhibition (in general, the share of the control response that was lost under treatment) at 8 µM in data set [5] (THP-1, read-out: inhibition of ZE-LV infection) is around 40%. In addition, the “inhibition of live Ebola virus” value in data set [6] is reported as “inhibit”. Also, the “MTb infection of THP-1 cells” value in data set [7] is recorded as “potently inhibits”. For the same compound, the “HIVBALZsGreen1 infection of MDM” value in data set [8] is “suppresses”. Further, the “activation of the integrated LTR-Renilla reporter gene” value in data set [9] (MTb infection, not shown) is listed as “significantly inhibits”. Also, the “HIV transcriptional activation (LTR-Renilla)” value in [9] (Sendai virus infection) and in [9] (stimulation with TLR2 agonist Pam3Cys) was “inhibited” each time. In addition, the “LTR reactivation (ZsGreen1)” value in [10] (TLR2 agonist Pam3Cys, 10 μM NTZ, 6 hrs) is reported as “reduces”; in data set [10] (direct MTb infection, 6 hours) it was “reduces”. The “transcription of PKR gene” value in [11] is listed as “induce”. Further, the “transcription of RIG-I gene” value in data set [12] is on record as “induce”. Besides, the “MTb augmentation of HIV replication” value in data set [13] is given as “suppressed”. In data set [14], the “reduction of viable, nonreplicating MTb” value is on record as “over 2 log units”. Moreover, in data set [15], the “autophosphorylation of PKR” value is reported as “directly induces”. In addition, the MTb proliferation result in data set [16] is listed as “suppress”. For the same compound, the autophagy result in data set [17] is on record as “promotes autophagy”. Besides, in data set [18], the “suppression of X4-tropic HIV replication” value is recorded as “synergizes”. For the same compound, the “treatment of uncomplicated influenza” value in data set [19] is “efficacy”. For the same compound, the HCV virological response result in data set [20] is recorded as “significantly improve”. Moreover, in [21], the intracellular acidity entry is “increased intracellular acidity”.
Pam3Cys: the IFITM3 gene expression entry in data set [3] (THP-1 cells, TLR agonist 100 ng/ml, 24 and 48 hours) is reported as “significantly induced”.
For IFN-γ: IFN-γ treatment, in data set [3], the “IFITM3 mRNA induction” value was “strongly induced”.
